Test results taken from US20220340597A1, “HEXAHYDRO-1H-PYRAZINO[1,2-A]PYRAZINE COMPOUNDS FOR THE TREATMENT OF AUTOIMMUNE DISEASE” (Hoffmann-La Roche Inc., priority 2019, published 2022).

Key:
human TLR9 = target: T1, human TLR9 (Homo sapiens, UniProt Q9NR96); assay: HEK293-Blue-hTLR-9 cells assay; format: cell-based; settings: HEK293-Blue-hTLR9 cells, ODN2006 stimulation, 20 hrs, SEAP reporter; read-out: HEK/hTLR9 IC50
T1 construct: host or cells: HEK293 (HEK-Blue hTLR9)
T1 sequence (Q9NR96 26-1032): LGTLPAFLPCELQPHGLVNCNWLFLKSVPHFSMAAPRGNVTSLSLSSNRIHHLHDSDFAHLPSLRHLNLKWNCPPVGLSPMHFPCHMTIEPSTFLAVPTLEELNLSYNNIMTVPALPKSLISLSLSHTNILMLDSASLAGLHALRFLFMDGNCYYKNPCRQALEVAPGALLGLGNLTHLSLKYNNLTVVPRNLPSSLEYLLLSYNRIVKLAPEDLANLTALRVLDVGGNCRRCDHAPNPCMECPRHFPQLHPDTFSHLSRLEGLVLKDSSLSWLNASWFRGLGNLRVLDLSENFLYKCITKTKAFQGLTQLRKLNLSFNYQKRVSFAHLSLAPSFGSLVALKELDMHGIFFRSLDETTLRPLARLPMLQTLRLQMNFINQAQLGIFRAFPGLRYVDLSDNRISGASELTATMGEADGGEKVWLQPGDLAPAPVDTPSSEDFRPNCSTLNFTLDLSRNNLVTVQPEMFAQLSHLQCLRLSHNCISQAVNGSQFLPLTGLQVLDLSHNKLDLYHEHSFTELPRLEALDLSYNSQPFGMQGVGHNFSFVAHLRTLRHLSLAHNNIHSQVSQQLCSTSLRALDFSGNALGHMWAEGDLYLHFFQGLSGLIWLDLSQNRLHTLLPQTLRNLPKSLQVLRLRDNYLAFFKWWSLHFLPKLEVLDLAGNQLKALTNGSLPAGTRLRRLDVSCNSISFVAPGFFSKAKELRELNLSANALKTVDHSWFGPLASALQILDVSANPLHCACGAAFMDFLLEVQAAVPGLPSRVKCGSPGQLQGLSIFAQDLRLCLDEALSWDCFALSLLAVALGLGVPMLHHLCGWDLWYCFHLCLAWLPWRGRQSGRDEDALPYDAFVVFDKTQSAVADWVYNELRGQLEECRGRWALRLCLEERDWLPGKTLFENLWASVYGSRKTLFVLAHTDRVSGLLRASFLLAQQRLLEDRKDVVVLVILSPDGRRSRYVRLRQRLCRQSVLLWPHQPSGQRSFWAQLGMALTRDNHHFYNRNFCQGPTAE

human TLR8 = target: T2, human TLR8 (Homo sapiens, UniProt Q9NR97); assay: HEK293-Blue-hTLR-8 cells assay
T2 sequence (Q9NR97 27-1041): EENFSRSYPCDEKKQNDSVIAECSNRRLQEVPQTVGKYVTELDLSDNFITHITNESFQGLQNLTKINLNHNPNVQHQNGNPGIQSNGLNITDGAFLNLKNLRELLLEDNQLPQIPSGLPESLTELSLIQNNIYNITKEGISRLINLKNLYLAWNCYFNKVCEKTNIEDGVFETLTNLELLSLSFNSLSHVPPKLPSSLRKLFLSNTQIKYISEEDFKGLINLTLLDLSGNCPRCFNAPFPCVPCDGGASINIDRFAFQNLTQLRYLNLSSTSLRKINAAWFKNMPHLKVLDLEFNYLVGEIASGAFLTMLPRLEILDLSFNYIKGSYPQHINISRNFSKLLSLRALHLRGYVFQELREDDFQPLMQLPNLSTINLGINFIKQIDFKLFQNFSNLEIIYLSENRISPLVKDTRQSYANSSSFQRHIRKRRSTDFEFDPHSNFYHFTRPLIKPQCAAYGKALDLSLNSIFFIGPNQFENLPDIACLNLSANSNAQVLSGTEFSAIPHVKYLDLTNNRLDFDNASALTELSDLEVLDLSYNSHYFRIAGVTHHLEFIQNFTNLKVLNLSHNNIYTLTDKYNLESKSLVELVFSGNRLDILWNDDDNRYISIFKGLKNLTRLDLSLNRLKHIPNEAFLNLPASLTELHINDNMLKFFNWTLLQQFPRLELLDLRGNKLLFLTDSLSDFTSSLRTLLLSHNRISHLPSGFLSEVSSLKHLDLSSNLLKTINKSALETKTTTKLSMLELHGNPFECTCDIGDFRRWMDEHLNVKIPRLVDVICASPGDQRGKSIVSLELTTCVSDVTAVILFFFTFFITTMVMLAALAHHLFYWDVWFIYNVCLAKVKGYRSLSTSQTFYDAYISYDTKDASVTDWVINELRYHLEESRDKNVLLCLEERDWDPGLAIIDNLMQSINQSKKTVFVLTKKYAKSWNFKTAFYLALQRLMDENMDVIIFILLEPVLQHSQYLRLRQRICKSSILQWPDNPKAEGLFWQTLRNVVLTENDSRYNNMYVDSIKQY

How did the IC50 (human TLR9) turn out when `C[C@@H]1CN(c2ccc(C#N)c3ncccc23)C[C@@H]2CN(Cc3ccc4c(c3)CNCC4)CCN21` (relative stereo) [Example 1] was run?
Its IC50 is 58 nM.

And the IC50 (human TLR8)?
Its IC50 is 10 nM.

How did the IC50 (human TLR9) turn out when `C[C@@H]1CN(c2ccc(C#N)c3ncccc23)C[C@@H]2CN(Cc3ccnc(N4CCNCC4)c3)CCN21` (relative stereo) [Example 3] was run?
The IC50 was 110 nM.

And the IC50 (human TLR8)?
The IC50 was 12 nM.

For `[2H]c1ccc2c(N3C[C@@H]4CN(Cc5ccc(N6CC7(CN(C)C7)C6)nc5C)CCN4[C@H](C)C3)ccc(C#N)c2n1` [Example 80, 5-[(4R,9aS)-4-methyl-8-[[2-methyl-6-(6-methyl-2,6-diazaspiro[3.3]heptan-2-yl)-3-pyridyl]methyl]-3,4,6,7,9,9a-hexahydro-1H-pyrazino[1,2-a]pyrazin-2-yl]-2-deuterio-quinoline-8-carbonitrile], which IC50 (human TLR9) is on record?
The IC50 was < 32 nM.

What about the IC50 (human TLR8) of the same molecule?
The IC50 was 5 nM.

With `[2H]c1ccc2c(N3C[C@@H]4CN(Cc5ccc(N6CC[C@@](C)(N)C6)nc5C)CCN4[C@H](C)C3)ccc(C#N)c2n1` [Example 81, 5-[(4R,9aS)-8-[[6-[(3R)-3-amino-3-methyl-pyrrolidin-1-yl]-2-methyl-3-pyridyl]methyl]-4-methyl-3,4,6,7,9,9a-hexahydro-1H-pyrazino[1,2-a]pyrazin-2-yl]-2-deuterio-quinoline-8-carbonitrile] as the molecule, how does the IC50 (human TLR9) read?
The IC50 was < 32 nM.

And the IC50 (human TLR8)?
The IC50 was 5 nM.

What does the source list for `[2H]c1ccc2c(N3C[C@@H]4CN(Cc5ccc(N[C@H]6CNC[C@H]6F)nc5C)CCN4[C@H](C)C3)ccc(C#N)c2n1` [Example 82, 5-[(4R,9aS)-8-[[6-[[(3S,4R)-4-fluoropyrrolidin-3-yl]amino]-2-methyl-3-pyridyl]methyl]-4-methyl-3,4,6,7,9,9a-hexahydro-JH-pyrazino[1,2-a]pyrazin-2-yl]-2-deuterio-quinoline-8-carbonitrile]?
IC50 (human TLR9): 41 nM; IC50 (human TLR8): 3 nM

How did the IC50 (human TLR9) turn out when `[2H]c1ccc2c(N3C[C@@H]4CN(Cc5ccc(N6CC7CNCC(C6)O7)nc5C)CCN4[C@H](C)C3)ccc(C#N)c2n1` [Example 83, 5-[(4R,9aS)-4-methyl-8-[[2-methyl-6-(9-oxa-3,7-diazabicyclo[3.3.1]nonan-3-yl)-3-pyridyl]methyl]-3,4,6,7,9,9a-hexahydro-1H-pyrazino[1,2-a]pyrazin-2-yl]-2-deuterio-quinoline-8-carbonitrile] was run?
Its IC50 is 51 nM.

What about the IC50 (human TLR8) of the same molecule?
The IC50 was 7 nM.

With `[2H]c1ccc2c(N3C[C@@H]4CN(CCc5ccc(N6CC[C@@](C)(N)C6)nc5)CCN4[C@H](C)C3)ccc(C#N)c2n1` [Example 84, 5-[(4R,9aS)-8-[2-[6-[(3R)-3-amino-3-methyl-pyrrolidin-1-yl]-3-pyridyl]ethyl]-4-methyl-3,4,6,7,9,9a-hexahydro-1H-pyrazino[1,2-a]pyrazin-2-yl]-2-deuterio-quinoline-8-carbonitrile] as the molecule, how does the IC50 (human TLR9) read?
Its IC50 is < 32 nM.

What about the IC50 (human TLR8) of the same molecule?
The IC50 was 19 nM.

With `Cc1nc(N2CCNC[C@@H]2C)ccc1CN1CCN2[C@@H](C1)CN(c1ccc(C#N)c3ncccc13)C[C@H]2C` [Example 85, 5-[(4R,9aS)-4-methyl-8-[[2-methyl-6-[(2S)-2-methylpiperazin-1-yl]-3-pyridyl]methyl]-3,4,6,7,9,9a-hexahydro-1H-pyrazino[1,2-a]pyrazin-2-yl]quinoline-8-carbonitrile] as the molecule, how does the IC50 (human TLR9) read?
The IC50 was 97 nM.

What about the IC50 (human TLR8) of the same molecule?
The IC50 was 10 nM.

What does the source list for `Cc1nc(N2CCN[C@H](C)C2)ccc1CN1CCN2[C@@H](C1)CN(c1ccc(C#N)c3ncccc13)C[C@H]2C` [Example 86, 5-[(4R,9aS)-4-methyl-8-[[2-methyl-6-[(3R)-3-methylpiperazin-1-yl]-3-pyridyl]methyl]-3,4,6,7,9,9a-hexahydro-1H-pyrazino[1,2-a]pyrazin-2-yl]quinoline-8-carbonitrile]?
IC50 (human TLR9): 62 nM; IC50 (human TLR8): 12 nM

Which IC50 (human TLR9) does the source give for `[2H]c1ccc2c(N3C[C@@H]4CN(Cc5cnc(N6CCNCC6)cc5C)CCN4[C@H](C)C3)ccc(C#N)c2n1` [Example 87, 5-[(4R,9aS)-4-methyl-8-[(4-methyl-6-piperazin-1-yl-3-pyridyl)methyl]-3,4,6,7,9,9a-hexahydro-1H-pyrazino[1,2-a]pyrazin-2-yl]-2-deuterio-quinoline-8-carbonitrile] here?
The IC50 was 52 nM.

What about the IC50 (human TLR8) of the same molecule?
Its IC50 is 15 nM.

For `[2H]c1ccc2c(N3C[C@@H]4CN(Cc5nc(N6CCNCC6)ccc5C)CCN4[C@H](C)C3)ccc(C#N)c2n1` [Example 88, 5-[(4R,9aS)-4-methyl-8-[(3-methyl-6-piperazin-1-yl-2-pyridyl)methyl]-3,4,6,7,9,9a-hexahydro-1H-pyrazino[1,2-a]pyrazin-2-yl]-2-deuterio-quinoline-8-carbonitrile], which IC50 (human TLR9) is on record?
Its IC50 is 47 nM.

What about the IC50 (human TLR8) of the same molecule?
Its IC50 is 10 nM.

Which results are given for `[2H]c1ccc2c(N3C[C@@H]4CN(CCc5ccnc(N6C[C@@H](N)[C@@H](F)C6)c5)CCN4[C@H](C)C3)ccc(C#N)c2n1` [Example 89, 5-[(4R,9aS)-8-[2-[2-[(3R,4S)-3-amino-4-fluoro-pyrrolidin-1-yl]-4-pyridyl]ethyl]-4-methyl-3,4,6,7,9,9a-hexahydro-1H-pyrazino[1,2-a]pyrazin-2-yl]-2-deuterio-quinoline-8-carbonitrile]?
IC50 (human TLR9): 47 nM; IC50 (human TLR8): 44 nM

What does the source list for `[2H]c1ccc2c(N3C[C@@H]4CN(Cc5ccc(N6CC7CC(C6)N7)nc5C)CCN4[C@H](C)C3)ccc(C#N)c2n1` [Example 90, 5-[(4R,9aS)-8-[[6-(3,6-diazabicyclo[3.1.1]heptan-3-yl)-2-methyl-3-pyridyl]methyl]-4-methyl-3,4,6,7,9,9a-hexahydro-1H-pyrazino[1,2-a]pyrazin-2-yl]-2-deuterio-quinoline-8-carbonitrile]?
IC50 (human TLR9): 33 nM; IC50 (human TLR8): 8 nM

Which results are given for `[2H]c1ccc2c(N3C[C@@H]4CN(Cc5ccc(N6CC7CCC(C6)N7)nc5C)CCN4[C@H](C)C3)ccc(C#N)c2n1` [Example 91, 5-[(4R,9aS)-8-[[6-(3,8-diazabicyclo[3.2.1]octan-3-yl)-2-methyl-3-pyridyl]methyl]-4-methyl-3,4,6,7,9,9a-hexahydro-1H-pyrazino[1,2-a]pyrazin-2-yl]-2-deuterio-quinoline-8-carbonitrile]?
IC50 (human TLR9): 45 nM; IC50 (human TLR8): 20 nM

`[2H]c1ccc2c(N3C[C@@H]4CN(Cc5ccc(N6C[C@@H]7C[C@H]6CN7)nc5C)CCN4[C@H](C)C3)ccc(C#N)c2n1` [Example 92, 5-[(4R,9aS)-8-[[6-[(1S,4S)-2,5-diazabicyclo[2.2.1]heptan-2-yl]-2-methyl-3-pyridyl]methyl]-4-methyl-3,4,6,7,9,9a-hexahydro-1H-pyrazino[1,2-a]pyrazin-2-yl]-2-deuterio-quinoline-8-carbonitrile] was tested. Which IC50 (human TLR9) did it give?
Its IC50 is 34 nM.

What about the IC50 (human TLR8) of the same molecule?
The IC50 was 9 nM.

With `Cc1cc(N2CCNCC2)cnc1N1CCN2[C@@H](C1)CN(c1cc(=O)n(C)c3ncccc13)C[C@H]2C` [Example 93, 4-[(4R,9aR)-4-methyl-8-(3-methyl-5-piperazin-1-yl-2-pyridyl)-3,4,6,7,9,9a-hexahydro-1H-pyrazino[1,2-a]pyrazin-2-yl]-1-methyl-1,8-naphthyridin-2-one] as the molecule, how does the IC50 (human TLR9) read?
The IC50 was 186 nM.

And the IC50 (human TLR8)?
The IC50 was 61 nM.
